From ChEMBL document CHEMBL3044958, “Synthesis, evaluation of 6,8-dibromo-2-aryl-2,3-dihydroquinolin-4(1H)-ones in MCF-7 (breast cancer) cell lines and their docking studies” (2012) come the findings set out here.

Type in all cases: functional
Test [1] deals with MCF7. Nature of the test: Growth inhibition of Homo sapiens (human) MCF-7 cells assessed as total cell growth after 48 hr by SRB assay. For orientation: The SRB assay estimates cell density from bound dye.
Test [2] relates to MCF7. The test is described as follows: Cytotoxicity against Homo sapiens (human) MCF-7 cells after 48 hr by SRB assay. As to conditions: MCF7, 48 h.
In test [3] the test system is MCF7. The test is described as follows: Growth inhibition of Homo sapiens (human) MCF-7 cells assessed as cell growth at 10 '-4 M after 48 hr by SRB assay. The conditions noted are these: MCF7, 48 h, read-out: Activity.
For test [4], the system named is MCF7. Nature of the test: Growth inhibition of Homo sapiens (human) MCF-7 cells assessed as cell growth at 10 '-6 M after 48 hr by SRB assay. As to conditions: MCF7, 48 h, read-out: Activity.
Test [5] concerns MCF7. Nature of the test: Growth inhibition of Homo sapiens (human) MCF-7 cells assessed as cell growth at 10 '-7 M after 48 hr by SRB assay. The conditions noted are these: MCF7, 48 h, read-out: Activity.
For test [6], the system named is MCF7. Nature of the test: Growth inhibition of Homo sapiens (human) MCF-7 cells assessed as cell growth at 10 '-5 M after 48 hr by SRB assay. As to conditions: MCF7, 48 h, read-out: Activity.
The subject of test [7] is MCF7. The test is described as follows: Growth inhibition of Homo sapiens (human) MCF-7 cells after 48 hr by SRB assay. The conditions noted are these: MCF7, 48 h.

The structures appear in SMILES notation.

As usually defined, the TGI is the concentration giving total growth inhibition. The GI50 is the concentration at which growth is held to half of that of the control. Read a high GI50 as lower sensitivity of the cells. On to `O=C1CC(c2ccc(Br)cc2)Nc2c(Br)cc(Br)cc21` (stereo unspecified), for which the TGI in the test with MCF7 [1] is 2600 nM. Also, in the test on MCF7 [2], the LC50 (concentration killing 50% of cells) is more than 100000 nM. In the test with MCF7 [3], the growth at 100 µM was -43%. Moreover, the growth at 1 µM in the test with MCF7 [4] was found to be 69.7%. Further, in the test with MCF7 [5], the growth at 0.1 µM was determined as 69.7%. Further, the growth at 10 µM in the test on MCF7 [6] is 12.5%. This molecule returned a GI50 in the test with MCF7 [7] of 151 nM.
`O=C1CC(c2ccc([N+](=O)[O-])cc2)Nc2c(Br)cc(Br)cc21` (stereo unspecified): the TGI in the test with MCF7 [1] is 132 nM. This molecule also registered an LC50 (concentration killing 50% of cells) with MCF7 [2] of more than 100000 nM. The growth at 100 µM in the test with MCF7 [3] was -52.3%. Further, in the test on MCF7 [4], the growth at 1 µM is 8.6%. Further, the growth at 0.1 µM with MCF7 [5] amounted to 50.5%. For the same molecule, the growth at 10 µM in the test with MCF7 [6] was -4.4%. Besides, in the test on MCF7 [7], the GI50 was less than 100 nM.
With `N#Cc1ccc(C2CC(=O)c3cc(Br)cc(Br)c3N2)cc1` (stereo unspecified), the TGI in the test with MCF7 [1] is 126 nM. The LC50 (concentration killing 50% of cells) in the test on MCF7 [2] was more than 100000 nM. Moreover, the growth at 100 µM in the test on MCF7 [3] was -58.5%. Besides, in the test with MCF7 [4], the growth at 1 µM amounted to 8.2%. Further, in the test on MCF7 [5], the growth at 0.1 µM stood at 43.1%. For the same molecule, the growth at 10 µM in the test on MCF7 [6] is -5.1%. In the test on MCF7 [7], the GI50 is less than 100 nM.
Regarding `COc1ccc(C2CC(=O)c3cc(Br)cc(Br)c3N2)cc1` (stereo unspecified), the TGI in the test with MCF7 [1] is more than 100000 nM. Further, the LC50 (concentration killing 50% of cells) with MCF7 [2] was more than 100000 nM. For the same molecule, in the test on MCF7 [3], the growth at 100 µM stood at 7.1%. The growth at 1 µM with MCF7 [4] was found to be 140%. Also, the growth at 0.1 µM with MCF7 [5] came to 168%. In the test on MCF7 [6], the growth at 10 µM was found to be 87.8%. The molecule further had a GI50 with MCF7 [7] of more than 100000 nM.
On to `O=C1CC(c2ccc(O)cc2)Nc2c(Br)cc(Br)cc21` (stereo unspecified), for which the TGI with MCF7 [1] is 151 nM. The molecule also showed an LC50 (concentration killing 50% of cells) with MCF7 [2] of more than 100000 nM. The growth at 100 µM with MCF7 [3] was -45.3%. Also, the growth at 1 µM in the test with MCF7 [4] amounted to 9.6%. In the test on MCF7 [5], the growth at 0.1 µM is 3.7%. In addition, the growth at 10 µM in the test with MCF7 [6] was -2%. Further, in the test on MCF7 [7], the concentration for 50% growth inhibition (GI50) was less than 100 nM.
Consider `O=C1CC(c2cccc(O)c2)Nc2c(Br)cc(Br)cc21` (stereo unspecified), for which the concentration for total growth inhibition (TGI) with MCF7 [1] is more than 100000 nM. Moreover, the LC50 (concentration killing 50% of cells) in the test with MCF7 [2] was more than 100000 nM. Moreover, the growth at 100 µM in the test on MCF7 [3] is 14.7%. In addition, in the test on MCF7 [4], the growth at 1 µM turned out to be 108%. Besides, the growth at 0.1 µM in the test on MCF7 [5] was determined as 118%. Besides, the growth at 10 µM with MCF7 [6] was 25.6%. In the test with MCF7 [7], the GI50 was more than 100000 nM.
For the molecule `CN(C)c1ccc(C2CC(=O)c3cc(Br)cc(Br)c3N2)cc1` (stereo unspecified), the TGI in the test with MCF7 [1] was more than 100000 nM. Moreover, in the test on MCF7 [2], the LC50 (concentration killing 50% of cells) is more than 100000 nM. The growth at 100 µM in the test with MCF7 [3] amounted to 43%. Moreover, the growth at 1 µM in the test with MCF7 [4] amounted to 144%. The growth at 0.1 µM in the test on MCF7 [5] came to 164%. The growth at 10 µM in the test on MCF7 [6] was 130%. This molecule also yielded a GI50 in the test on MCF7 [7] of more than 100000 nM.
With `COc1cc(C2CC(=O)c3cc(Br)cc(Br)c3N2)cc(OC)c1OC` (stereo unspecified), in the test on MCF7 [1], the TGI was more than 100000 nM. The molecule also displayed an LC50 (concentration killing 50% of cells) in the test on MCF7 [2] of more than 100000 nM. The growth at 100 µM in the test with MCF7 [3] amounted to 34.3%. In addition, in the test with MCF7 [4], the growth at 1 µM stood at 110%. Also, in the test on MCF7 [5], the growth at 0.1 µM came out at 130%. Moreover, the growth at 10 µM in the test with MCF7 [6] is 99.6%. In addition, the GI50 with MCF7 [7] was more than 100000 nM.
As to `O=C1CC(c2ccc(F)cc2)Nc2c(Br)cc(Br)cc21` (stereo unspecified), in the test on MCF7 [1], the TGI was found to be 145 nM. The LC50 (concentration killing 50% of cells) with MCF7 [2] was more than 100000 nM. In the test on MCF7 [3], the growth at 100 µM was -48.1%. For the same molecule, the growth at 1 µM with MCF7 [4] amounted to 9.2%. Also, the growth at 0.1 µM in the test on MCF7 [5] was determined as 30.1%. Further, in the test on MCF7 [6], the growth at 10 µM was -3.6%. Moreover, the concentration for 50% growth inhibition (GI50) with MCF7 [7] is less than 100 nM.
Turning to `O=C1CC(c2ccc(Cl)cc2)Nc2c(Br)cc(Br)cc21` (stereo unspecified), in the test with MCF7 [1], the TGI is 2870 nM. In the test on MCF7 [2], this molecule showed an LC50 (concentration killing 50% of cells) of more than 100000 nM. Also, in the test with MCF7 [3], the growth at 100 µM was -40%. In addition, the growth at 1 µM with MCF7 [4] turned out to be 61.7%. Besides, in the test on MCF7 [5], the growth at 0.1 µM is 60.2%. Besides, the growth at 10 µM in the test on MCF7 [6] was 34.5%. In the test with MCF7 [7], this molecule gave a GI50 of 146 nM.
Take `COc1cccc2c1C(=O)c1c(O)c3c(c(O)c1C2=O)C[C@@](O)(C(=O)CO)C[C@@H]3O[C@H]1C[C@H](N)[C@H](O)[C@H](C)O1.Cl` [DOXORUBICIN HYDROCHLORIDE]: the TGI with MCF7 [1] turned out to be 183 nM. For the same molecule, the growth at 100 µM in the test on MCF7 [3] was -33.5%. Further, in the test with MCF7 [4], the growth at 1 µM is -13.9%. In the test on MCF7 [5], the growth at 0.1 µM was 53.5%. Besides, in the test with MCF7 [6], the growth at 10 µM was -23.7%. In the test on MCF7 [7], this molecule registered a GI50 of less than 100 nM.
